Laboratory results published in US20120046333A1, “Methods and Compositions of PI-3 Kinase Inhibitors for Treating Fibrosis” (Oncothyreon Incorporated, priority 2009, published 2012).
Entries after “also recorded” stand apart in the source; their conditions may differ.

Tests used:
[1] = aqueous solutions at 37° C. or 0° C. at neutral pH; cited from earlier work
[2] = tested on: CCSP-rtTA/otet-TGFα transgenic mice; assay: Prevention of TGFα-induced pulmonary fibrosis, PX-866 given at initiation of TGFα induction; type: in vivo; settings: 4 weeks of Dox, PX-866 from initiation of TGFα induction
Description: (§1) CCSP-rtTA activator mice expressing the reverse tetracycline-responsive transactivator (rtTA) under control of the 2.3-kb rat Clara Cell Secretory Protein (CCSP), a.k.a. secretoglobin, family 1A, member 1 (Scgblal) gene promoter were mated to conditional doxycycline (Dox) regulated transgenic mice containing the human TGFα cDNA under the control of seven copies of the tetracycline operon ((TetO)7-cmv TGFα) plus a minimal CMV promoter. Single transgenic (CCSP-rtTA+/−) and bitransgenic CCSP-rtTA+/−/(TetO)7-cmv TGFα+/− mice were produced within the same litter by mating homozygous CCSP-rtTA+/+ mice to hemizygous (TetO)?-cmv TGFα+/− mice. All mice were derived from the FVB/NJ inbred strain. […]
(§2) Lung Histology, Immunostaining and Total Lung Collagen: Lungs were inflation fixed as previously described. […] Total lung collagen was determined by quantifying total soluble collagen (Sircol Collagen Assay, Biocolor, Ireland) as previously described.
(§3) Pulmonary Mechanics: Lung mechanics were assessed on mice with a computerized Flexi Vent system (SCIREQ, Montreal, Canada). […] The ventilation mode was changed to forced oscillatory signal (0.5-19.6 Hz), and respiratory impedance was measured. […]
(§4) Statistics: Means (+/−SEM) were calculated and plotted for each variable, by mouse group (CCSP/-Vehicle, CCSP/TGFα Vehicle, CCSP/TGFα PX-866). Data were assessed for normality using plots and the Shapiro-Wilk test. […]

[3] = tested on: phosphorylated Akt (P-Akt) Ser 473; assay: Western blot of TGFα-induced phosphorylation of Akt in lung homogenates; type: in vivo; settings: 1 day of Dox, PX-866 pretreatment 3 mg/kg by gavage, vs vehicle-treated transgenic mice
Description: as §1, with “strain. Mice were maintained in virus-free containment.” for “strain.”
Western Blots: Western blot analysis was performed on lung homogenates as previously described. Blots were incubated with antibodies against total and phosphorylated Akt (Ser 473 and Thr 308, Cell Signaling Technology) and quantified using the volume integration function on a PhosphorImager software Imagequant 5.2 (Molecular Dynamics, Sunnyvale, Calif.).
PX-866 inhibits TGFα-Induced Phosphorylation of Akt: CCSP-rtTA/otet-TGFαmice were treated with 1 day of Dox to induce TGFα expression. Phosphorylated Akt (P-Akt) levels for Ser 473 as measured by Western blot analysis increased over 5-fold compared to Dox-treated control mice.

[4] = tested on: CCSP-rtTA/otet-TGFα transgenic mice; assay: Progression of established TGFα-induced pulmonary fibrosis, PX-866 given after 4 weeks of Dox; type: in vivo; settings: 8 weeks of Dox
Description: CCSP-rtTA activator mice expressing the reverse tetracycline-responsive transactivator (rtTA) under control of the 2.3-kb rat Clara Cell Secretory Protein (CCSP), a.k.a. secretoglobin, family 1A, member 1 (Scgblal) gene promoter were mated to conditional doxycycline (Dox) regulated transgenic mice containing the human TGFα cDNA under the control of seven copies of the tetracycline operon ((TetO)7-cmv TGFα) plus a minimal CMV promoter. Single transgenic (CCSP-rtTA+/−) and bitransgenic CCSP-rtTA+/−/(TetO)7-cmv TGFα+/− mice were produced within the same litter by mating homozygous CCSP-rtTA+/+ mice to hemizygous (TetO)?-cmv TGFα+/− mice. All mice were derived from the FVB/NJ inbred strain. Mice were maintained in virus-free containment. All animal protocols were reviewed and approved by the Institutional Animal Use and Care Committee of the Cincinnati Children's Hospital Research Foundation. To induce TGFα expression, Dox (Sigma, St. Louis, Mo.) was administered in the drinking water at a final concentration of 0.5 mg/ml and in food (62.5 mg/kg). Water was replaced three times per week. Mice were genotyped as known in the art.
The PI3K inhibitor PX-866 (ProIX Pharmaceuticals, Tucson, Ariz.) was suspended into 5% EtOH to make a 5 mg/ml stock solution. Three hours prior to administration, food and water were removed from cages. Mice were then anesthetized (Isoflurane; Abbott Labs, Chicago, Ill.), and sterile vehicle or drug (3 mg/kg) was administered by gavage using a 20 gauge feeding catheter (Harvard Apparatus, Holliston, Mass.). Mice were treated with vehicle or PX-866 every other day for up to 4 weeks. Mice were killed with pentobarbital sodium (65 mg/ml) euthanasia solution (Fort Dodge Animal Health, Fort Dodge, Iowa) 1 day or 4 weeks after Dox and vehicle or PX-866 treatment.
as §2, §3, §4
Weights of mice in four different groups were measured at Baseline and at evenly spaced intervals during the next eight weeks, once per week. […] Differences in selected (a priori) Group*Time means were calculated and tested using a simulation-based adjustment for multiple comparisons. […]

[5] = PX-866 from 4 weeks after TGFα induction

Compound | stability in aqueous solution [1] | lung mechanics (airway resistance, airway and tissue elastance, compliance) [2] | TGFα-induced phosphorylation of Akt (P-Akt, Ser 473) [3] | lung fibrosis by histology [4, 5] | lung mechanics (airway resistance, airway and tissue elastance, compliance) [4, 5] | total lung collagen [4, 5] | body weight ([4]; PX-866 from beginning of week 5)
COC[C@H]1OC(=O)c2coc3c2[C@@]1(C)C1=C(C3=O)[C@@H]2CCC(=O)[C@@]2(C)C[C@H]1OC(C)=O [Wortmannin] | subject to decomposition by hydrolytic opening of the furan ring | – | – | – | – | – | –
C=CCN(/C=C1/C(=O)O[C@H](COC)[C@@]2(C)C1=C(O)C(=O)C1=C2[C@H](OC(C)=O)C[C@]2(C)C(=O)CC[C@@H]12)CC=C [PX-866] | – | did not show any differences in lung mechanics; also recorded: prevented increases in airway resistance, airway and tissue elastance, and decreases in compliance | prevented TGFα-induced increases in P-Akt; also recorded: prevented increased phosphorylation of Akt | reduced pleural fibrosis as well as reduced perivascular and peribronchial fibrosis; also recorded: reduced fibrosis on lung histology; also recorded: attenuation of fibrosis | significantly improved compared with vehicle-treated mice; also recorded: improved lung mechanics; also recorded: reduced increases in airway resistance, and airway and tissue elastance, and decreases in compliance | reduced lung collagen levels; also recorded: unchanged compared with mice taken off Dox after 4 weeks | prevented further body weight loss; also recorded: normalization of body weights; also recorded: did not have changes in body weight
